According to patent US11998543B2, “Pharmaceutical composition comprising aldehyde inhibitor and anticancer agent for treatment of brain cancer” (Industry-Academic Cooperation Foundation, Yonsei University, priority 2018, dated 2024):

Experiments:
U87 cells = test: WST cytotoxicity / cell viability assay (EZ-Cytox), 72 h drug treatment; assay type: cell-based; settings: for Measured value (cell viability) / Value expressed relative to administration alone: U87; for Measured value (cell viability): G and P 10 μM each; for Measured value (cell viability) / Cancer cell killing (cytotoxicity), comparison in words: 72 h; for Value expressed relative to administration alone: viability with anticancer drug alone set to 1; for Cancer cell killing (cytotoxicity), comparison in words: spherical U87 cells, compared with single agents or other combinations, PTX and 5-FU at high concentration (H) vs TMZ alone
Procedure: (§1) Cultured tumorsphere-forming glioblastoma cells (GBM TS) were seeded into 96-well plates at a density of 10^4 cells/well and treated for 72 hours with a drug-containing medium prepared in a Preparation Example (a control group was treated with general culture medium), and then cytotoxicity to the cancer cells was measured by WST assay using EZ-Cytox reagent (DoGenBio, Seoul, Korea) according to the manufacturer's protocol.
(§2) For the present disclosure, two types of tumorsphere (TS)-forming glioblastoma (GBM) cells were used. TS13-64 cells are primary tumor cells derived from a GBM patient, and established from a new GBM tissue sample under the approval of the Institutional Review Board of the Yonsei University College of Medicine (approval Nos: 4-2012-0212 and 4-2014-0649). As U87 cells, spherical cells prepared by culturing the U87MG cell line under TS culture conditions were used. For TS culture, cells were treated with DMEM/F-12 medium containing 2 wt % 1×B27, 0.02 wt % bFGF (20 ng/ml), 0.02 wt % EGF (20 ng/ml) and 50 U/ml penicillin/[…] streptomycin (100×, Gibco, Invitrogen Korea, Seoul, South Korea), and all in vitro experiments were performed under TS culture conditions.
(§3) For use in in vitro experiments, gossypol (G) and phenformin (P, Sigma-Aldrich) were dissolved in DMSO and H2O, respectively, at a concentration of 10 μM. The anticancer drug temozolomide (TMZ, Sigma-Aldrich) was dissolved in DMSO and used at a concentration of 250 μM. As controls for the anticancer drug TMZ for co-administration with gossypol and phenformin, other anticancer drugs, paclitaxel (PTX) and fluorouracil (5-FU), were used. […] That is, in the same manner as TMZ, paclitaxel was prepared and used at a low concentration of 2 nM and a high concentration of 5 nM, and fluorouracil was prepared and used at a low concentration of 50 μM and a high concentration of 100 μM (low concentration is indicated by L, and high concentration is indicated by H).
as §1, with “in the” for “in a”
(§4) Evaluation of cytotoxicity to cancer cells and the sphere-forming ability of cells was performed in the same manner as in Example 1.
(§5) In order to more easily compare these effects, the cell viability value obtained upon administration of each anticancer drug alone was set to 1, and the cell viability value obtained upon co-administration was expressed relative to the cell viability value obtained upon administration of each anticancer drug alone.

TS13-64 cells = test: as above; assay type: cell-based, human; settings: for Measured value (cell viability) / Value expressed relative to administration alone: TS13-64; for Measured value (cell viability): G and P 10 μM each; for Measured value (cell viability) / Cancer cell killing (cytotoxicity), comparison in words: 72 h; for Value expressed relative to administration alone: viability with anticancer drug alone set to 1; for Cancer cell killing (cytotoxicity), comparison in words: TS13-64 cells, compared with single agents or other combinations, PTX and 5-FU at high concentration (H) vs TMZ alone
Procedure: as §1, §2, §3
as §1, with “in the” for “in a”
as §4, §5

[1] = high concentration (H): PTX 5 nM, 5-FU 100 μM
[2] = low concentration (L): PTX 2 nM, 5-FU 50 μM

CC(=O)O[C@H]1C(=O)[C@@]2(C)[C@H]([C@H](OC(=O)c3ccccc3)[C@]3(O)C[C@H](OC(=O)[C@H](O)[C@@H](NC(=O)c4ccccc4)c4ccccc4)C(C)=C1C3(C)C)[C@]1(OC(C)=O)CO[C@@H]1C[C@@H]2O [PTX, paclitaxel]
Measured value (cell viability) (U87 cells; [1]): 0.720 | Value expressed relative to administration alone (U87 cells; [1]): 1.000 | Measured value (cell viability) (U87 cells; [2]): 0.947 | Value expressed relative to administration alone (U87 cells; [2]): 1.000 | Cancer cell killing (cytotoxicity), comparison in words (U87 cells): higher | Measured value (cell viability) (TS13-64 cells; [1]): 0.675 | Value expressed relative to administration alone (TS13-64 cells; [1]): 1.000 | Measured value (cell viability) (TS13-64 cells; [2]): 0.764 | Value expressed relative to administration alone (TS13-64 cells; [2]): 1.000 | Cancer cell killing (cytotoxicity), comparison in words (TS13-64 cells): higher

Cn1nnc2c(C(N)=O)ncn2c1=O [TMZ, temozolomide]
Measured value (cell viability) (U87 cells; TMZ 250 μM): 0.879 | Value expressed relative to administration alone (U87 cells; TMZ 250 μM): 1.000 | Measured value (cell viability) (TS13-64 cells; TMZ 250 μM): 0.781 | Value expressed relative to administration alone (TS13-64 cells; TMZ 250 μM): 1.000

O=c1[nH]cc(F)c(=O)[nH]1 [5FU, fluorouracil]
Measured value (cell viability) (U87 cells; [1]): 0.804 | Value expressed relative to administration alone (U87 cells; [1]): 1.000 | Measured value (cell viability) (U87 cells; [2]): 0.980 | Value expressed relative to administration alone (U87 cells; [2]): 1.000 | Cancer cell killing (cytotoxicity), comparison in words (U87 cells): higher | Measured value (cell viability) (TS13-64 cells; [1]): 0.756 | Value expressed relative to administration alone (TS13-64 cells; [1]): 1.000 | Measured value (cell viability) (TS13-64 cells; [2]): 0.826 | Value expressed relative to administration alone (TS13-64 cells; [2]): 1.000 | Cancer cell killing (cytotoxicity), comparison in words (TS13-64 cells): higher
